Patent US12090221B2, “Composition for preventing gray hair, promoting black hair and preventing, improving or treating vitiligo or hypochromatism comprising fructose 1,6-bisphosphate or salt, solvate, stereoisomer or hydrate thereof as active ingredient” (AMOREPACIFIC CORPORATION, priority 2021, dated 2024)

Columns and labels:
human hair follicles = assay: Effect of preventing gray hair and promoting black hair in cultured human hair follicles damaged with hydrogen peroxide (Fontana-Masson staining of melanin); assay type: cell-based; conditions: 100 ppm together with 1000 μM hydrogen peroxide, cultured for 3 days, FIG. 3
Procedure: Occipital scalp tissue was obtained from a person who received hair follicle transplantation surgery due to hair loss. Hair follicle samples were isolated from the obtained occipital scalp tissue using a microscope. A total of 15 hair follicle samples were prepared for 3 groups, with 5 samples per each group. The hair follicle samples were cultured on a 24-well plate (Nunc, Wiesbaden, Germany) containing 500 μL of a culture medium, with 5 samples per well. As the culture medium, William's E medium (GIBCO, NY, USA) containing 2 mM L-glutamine (PAA, Coelbe, Germany), 10 μg/mL insulin, 10 ng/mL hydrocortisone (Sigma, St Louis, Mo.), 0.1% Fungizone (GIBCO, NY, USA), 10 μg/mL streptomycin and 100 U/mL penicillin (GIBCO, NY, USA) was used. After simultaneously treating with hydrogen peroxide and a fructose 1,6-bisphosphate trisodium salt (FBP-Na3H) at 1000 μM and 100 ppm, respectively, the samples were cultured for 3 days. For comparison, control groups were treated with 1000 μM hydrogen peroxide (H2O2) only or with neither hydrogen peroxide nor the fructose 1,6-bisphosphate trisodium salt. After the treatment, the sample was fixed with formalin, washed with water, dehydrated with alcohol and xylene, and then embedded in paraffin according to a common tissue-processing procedure. […]

[1] = system: Normal human epidermal melanocytes; assay: Melanin synthesis-promoting effect in normal human melanocytes (absorbance at 475 nm of NaOH lysate); assay type: cell-based; conditions: cultured for 6 days, relative to untreated group as 100%
Procedure: Normal human epidermal melanocytes (GIBCO™, ThermoFisher Scientific, USA) were treated with fructose 1,6-bisphosphate at 0 (untreated group), 0.1, 1, 10 or 100 ppm and then cultured for 6 days. After the culturing, the cells were lysed with 1 N NaOH and absorbance was measured at 475 nm. Relative melanin production was represented with respective to the absorbance of the untreated group not treated with fructose 1,6-bisphosphate as 100%. A higher absorbance means a higher melanin content.

Question: With `O=C(COP(=O)([O-])[O-])[C@@H](O)[C@H](O)[C@H](O)COP(=O)([O-])O.[Na+].[Na+].[Na+]` [fructose 1,6-bisphosphate trisodium salt] as the molecule, how does the “Melanin production in human hair follicles (Fontana-Masson staining)” value (human hair follicles) read?
Answer: promoting melanin production in human hair follicles

Question: And the “Prevention of decreased melanin production in hair bulbs due to hydrogen peroxide damage (Fontana-Masson staining)” value (human hair follicles; compared with H2O2 only)?
Answer: preventing decreased melanin production in hair bulbs due to damage caused by hydrogen peroxide

Question: `O=C(COP(=O)(O)O)[C@@H](O)[C@H](O)[C@H](O)COP(=O)(O)O` [fructose 1,6-bisphosphate] was tested. Which “Relative melanin production (effect of promoting melanin production in melanocytes)” value ([1]; 0.1, 1, 10 or 100 ppm, FIG. 1 and FIG. 2) did it give?
Answer: exhibits the effect of promoting melanin production in melanocytes

Question: What about the “Relative melanin production (effect of promoting melanin production in melanocytes)” value ([1]; 100 ppm treatment group) of the same molecule?
Answer: significantly high
